The test system of assay [1] is Pythium aphanadermatum. Put plainly: Example J cucumber damping off. The note with it: Pythium, 336 h; 5 kg/ha; read-out: disease control rating, Ex. J. It is filed as in vivo. In a few lines:
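Seeds and soil were inoculated with a mix of sand, cereal and Pythium aphanadermatum mycelium, the fungus responsible for cucumber damping off. They were kept in a growth chamber at 30° C. for 14 days, and disease was then rated to assess control.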

Assay [2] has as its system Plasmorpara viticola. Nature of the assay: Example I grape downy mildew. Format: in vivo. The note with it: read-out: disease control rating, Ex. I. In a few lines:
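First, each compound is taken up in acetone amounting to 6% of the final volume. It is then suspended in purified water containing 250 ppm of the polyhydric alcohol ester surfactant TREM 014, at 100 or 20 ppm. Finally, the suspension is sprayed onto grape seedlings until run-off.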

The subject of assay [3] is Candida albicans ATCC 11651. Put plainly: In vitro antifungal MIC, microtiter broth dilution. The note with it: Candida albicans, ATCC11651, 24 h, read-out: MIC values, C. albicans, 30°, 24 hours.
Assay [4] has as its system Fusarium oxysporum f. sp. cucumerinum. Nature of the assay: Example L cucumber wilt. Format: in vivo. The note with it: 336 h, 5 kg/ha, read-out: disease control rating, Ex. L. As for the experimental part: […] Seeds and soil were then inoculated with a mixture of sand, cereal and mycelium of the fungus Fusarium oxysporum f. sp. cucumerinum, causal agent of cucumber wilt, and incubated in a growth chamber at 30° C. for 14 days. Disease ratings were then made.

In assay [5] the test system is Phytophthora infestans. Nature of the assay: whole plant or invertebrate. It is filed as in vivo. Conditions: Phytophthora infestans, in Solanum lycopersicum, read-out: disease control rating, Ex. H, 100 PPM.
Assay [6] deals with Pyricularia oryzae. Nature of the assay: whole plant or invertebrate. Format: in vivo. Conditions: Pyricularia oryzae, 120 h; for pest or weed control at 100 ppm: read-out: disease control rating, Ex. E, 100 PPM.
Assay [7] concerns Sclerotium rolfsii. Put plainly: Example M southern blight. Format: in vivo. Conditions: Agroathelia rolfsii, 336 h; 5 kg/ha; read-out: disease control rating, Ex. M. As for the experimental part: […] Seeds and soil were then inoculated with a mixture of sand, cereal and mycelium of the fungus Sclerotium rolfsii, causal agent of sourthern blight, and incubated in a growth chamber at 30° C. for 14 days. Disease ratings were then made.

For assay [8], the system named is Rhizoctonia solani. Put plainly: Example K cotton blight. Format: in vivo. Conditions: 336 h, 5 kg/ha, read-out: disease control rating, Ex. K. As for the experimental part:
[…] Seeds and soil were then inoculated with a mixture of sand, cereal and mycelium of the fungus Rhizoctonia solani, causal agent of cotton blight, and incubated in a growth chamber at 30° C. for 14 days. Disease ratings were then made.

The subject of assay [9] is Puccinia recondita. Nature of the assay: Example G wheat leaf rust. It is filed as in vivo. Conditions: read-out: disease control rating, Ex. G.
For assay [10], the system named is Erysiphe graminis f. sp. tritici. Put plainly: Example D wheat powdery mildew. The note with it: Blumeria graminis, 144 h, read-out: disease control rating, Ex. D. It is filed as in vivo. In a few lines:
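Spray to run-off on wheat seedlings; test suspension 100 or 20 ppm compound, acetone 6% v/v, 250 ppm polyhydric alcohol ester surfactant in water.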

Assay [11] deals with Cercosporidium personatum. Put plainly: Example B Peanut Late Leafspot. Format: in vivo. Conditions: Nothopassalora personata, read-out: disease control rating, Ex. B. In a few lines:
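Foliar spray on peanut seedlings, to run-off; test rates 100 or 20 ppm. Formulation: acetone at 6% of final volume, water with 250 ppm polyhydric alcohol ester surfactant.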

In assay [12] the test system is Rhizoctonia solani. Nature of the assay: Example F rice sheath blight. Format: in vivo. Conditions: Rhizoctonia solani, 144 h, read-out: disease control rating, Ex. F. In a few lines:
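Spray to run-off on rice seedlings; test suspension 100 or 20 ppm compound in water + 250 ppm TREM 014 surfactant, acetone 6% final volume.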

Assay [13] relates to Botrytis cinerea. Nature of the assay: Example C bean grey mold. The note with it: Botrytis cinerea, 24 h, read-out: disease control rating, Ex. C. Format: in vivo. In a few lines:
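Broad bean seedlings; foliar spray to run-off. Cmpd 100 or 20 ppm in water + 250 ppm TREM 014, acetone 6% v/v final.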

In assay [14] the test system is Venturia inaequalis. Nature of the assay: Example A apple scab. It is filed as in vivo. The note with it: read-out: disease control rating, Ex. A. In a few lines:
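Acetone solution (6% of final vol.) → suspension at 100 or 20 ppm in water + 250 ppm TREM 014 surfactant; sprayed to run-off on apple seedlings.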

In assay [15] the test system is Aspergillus fumigatus ATCC 28214. Nature of the assay: In vitro antifungal MIC, microtiter broth dilution. Conditions: Aspergillus fumigatus, ATCC28214, 24 h, read-out: MIC values, A. fumigatus, 30°, 24 hours.
Experimental: In vitro activity (Table 5) is expressed in terms of the minimal inhibitory concentration (MIC) of the test compound which inhibits the growth of yeasts and fungi.
The target organisms, Candida albicans ATCC 11651 and Aspergillus fumigatus ATCC 28214 are standardized, [V. Bezjak, J. Clinical Micro., 21 509-512 (1984)], to a concentration of 10^7 organisms/ml and maintained at -70° until use. Test compounds are solubilized in dimethyl sulfoxide (DMSO) and diluted in Eagle's Minimum Essential Medium (EMEM) broth to achieve a final concentration of 200 μg/ml. Stock solutions of standard antifungal agents are stored at -70° and diluted in EMEM as required.
The in vitro assay utilizes a microtiter broth dilution technique [L. Polonelli and G. Morace, Mycopathologia, 86, 21-28 (1984)] and C. […] The appropriate wells are inoculated with the required organism (C. albicans at 1×10^4 organisms/ml and A. fumigatus at 5×10^5 organisms/ml) and the assay incubated at 30° for 24 hours.
The subject of assay [16] is Candida albicans ATCC 11651. Nature of the assay: In vivo systemic Candida infection in mice, primary assay. The note with it: Candida albicans, 150 mg/kg per day, read-out: % Survival. Further details: species or system Candida albicans; CF-1 female mice. In a few lines:
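CF-1 female mice (20 g, 10 per group) were infected IV with 0.2 ml of 1×10^7/ml C. albicans ATCC 11651, then given test compound subcutaneously at 50 or 150 mg/kg/day at 1 and 6 h post-infection and once daily for three more days. Survival was followed for 21 days against infected untreated mice; ≥70% protection at 14 days was scored active.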

≈ marks a conversion by molar mass, not a printed value. Read-outs that look alike come from different tables or passages of the source.

The term MIC denotes the lowest concentration that inhibits growth of the organism.

For `C=C(CO)C(O)(Cn1cncn1)c1ccc(Cl)cc1` (stereo not drawn) [Example 447], the pest or weed control at 5000 g/ha in [1], in assay [4], in [7] and in assay [8] was 0% throughout. In addition, the pest or weed control at 100 ppm was found to be 24% in [2]; 0% in assay [5]; 46% in assay [6]; 30% in assay [9]; 46% in assay [10]; 0% in [11]. Also, the values for the pest or weed control at 100 ppm in assay [12] and in [13] were 0% and 24%, respectively. For the same molecule, the MIC in assay [3] amounted to 3.2 µg/mL (≈ 11.4 µM).

Regarding `C=C(CO)C(O)(Cn1cncn1)c1ccc(Cl)cc1Cl` (stereo not drawn) [Example 449], the pest or weed control at 5000 g/ha in [1], in assay [4], in [7] and in assay [8] was 0% in each case. The pest or weed control at 100 ppm was determined as 51% in assay [2]; 0% in assay [5]; 76% in [6]; 30% in assay [9]; 0% in assay [10]; 0% in assay [11]. The pest or weed control at 100 ppm stood at 13% in [12], 71% in assay [14] and 24% in assay [13]. For the same molecule, the minimal inhibitory concentration (MIC) in assay [3] is not above 0.4 µg/mL.

With `C=C(CO)C(O)(Cn1cncn1)c1ccc(F)cc1` (stereo not drawn) [Example 450], the pest or weed control at 5000 g/ha in [1], in assay [4], in assay [7] and in assay [8] was 0% each time. In addition, the pest or weed control at 100 ppm in [2] amounted to 51%; in assay [5], 0%; in assay [6], 46%; in [9], 30%; in assay [10] it was 11%; in [11] it was 0%. For the same molecule, the results for the pest or weed control at 100 ppm in assay [12] and in assay [13] were 34% and 54%, respectively. The MIC in [3] is more than 100 µg/mL.

In the case of `C=C(CO)C(O)(Cn1cncn1)c1ccc(Br)cc1` (stereo not drawn) [Example 451], the pest or weed control at 5000 g/ha in [1], in assay [4], in [7] and in assay [8] was 0% in each case. For the same molecule, the pest or weed control at 100 ppm in [2] worked out at 0%; in [5], 0%; in assay [6], 0%; in [9] it was 0%; in [10] it was 0%; in assay [11], 100%. Further, the pest or weed control at 100 ppm in [12] stood at 0%; in assay [14], 16%; in assay [13], 72%. The MIC in [3] came to 12.5 µg/mL (≈ 38.6 µM).

In the case of `C=C(CN(C)C)C(O)(Cn1cncn1)c1ccc(-c2ccccc2)cc1` (stereo not drawn) [Example 456], the pest or weed control at 5000 g/ha in assay [1], in assay [4], in assay [7] and in assay [8] was 0% each time. Besides, the pest or weed control at 100 ppm is 0% in assay [2]; 9% in assay [5]; 98% in assay [6]; 96% in [9]; 53% in assay [10]; 0% in assay [11]. Moreover, the pest or weed control at 100 ppm came out at 0% in assay [12], 82% in assay [14] and 58% in assay [13].

In the case of `C=C(c1ccc(F)cc1)C(O)(Cn1cncn1)C(C)C` (stereo not drawn) [Example 667], the pest or weed control at 100 ppm in assay [2] stood at 10%; in assay [5], 0%; in assay [6] it was 0%; in [12], 0%; in assay [13], 4%. For the same molecule, the MIC was 6.3 µg/mL (≈ 22.9 µM) in assay [3] and 25 µg/mL (≈ 90.8 µM) in assay [15]. Moreover, the pest or weed control at 5000 g/ha in [4], in [7] and in assay [8] was 0% throughout. In addition, the pest or weed control at 20 ppm in assay [6] (read-out: disease control rating, Ex. E, 20 PPM) is 0%; in assay [9] (20 PPM) it was 0%; in assay [10] (20 PPM), 39%; in [11] (20 PPM), 14%; in [12] (20 PPM), 0%; in assay [14] (20 PPM), 13%. Moreover, in assay [13] (20 PPM), the pest or weed control at 20 ppm is 7%. For the same molecule, the responders at 150 mg/kg turned out to be 10% in assay [16] (ATCC11651, 168 h, day 7); 0% in [16] (ATCC11651, 336 h, day 14); 0% in [16] (ATCC11651, 504 h, day 21).

On to `N#CC[S+]([O-])c1ncnn1CC(O)(c1ccccc1F)C1(c2ccc(F)cc2)CO1` (stereo not drawn) [Example 1468], for which the pest or weed control at 5000 g/ha in assay [1] stood at 0%; in assay [4], 0%; in assay [7], 0%; in assay [8], 60%. Further, the pest or weed control at 100 ppm is 46% in assay [2]; 0% in assay [5]; 2% in [6]; 93% in assay [9]; 77% in assay [10]; 0% in assay [11]. Also, the pest or weed control at 100 ppm was found to be 40% in assay [14] and 0% in [13].

For the molecule `N#CCS(=O)(=O)c1ncnn1CC(O)(c1ccccc1F)C1(c2ccc(F)cc2)CO1` (stereo not drawn) [Example 1469], the pest or weed control at 5000 g/ha amounted to 0% in assay [1], 70% in assay [4], 0% in [7] and 80% in assay [8]. For the same molecule, the pest or weed control at 100 ppm was 89% in assay [2]; 24% in assay [5]; 2% in [6]; 100% in [9]; 77% in [10]; 84% in assay [11]. The pest or weed control at 100 ppm was 68% in assay [14] and 81% in assay [13].
